Measurements taken from paper PMC7995547, “ω‐Imidazolyl‐alkyl derivatives as new preclinical drug candidates for treating non‐alcoholic steatohepatitis” (Physiological Reports, 2021).

How the values were obtained:
[1] = tested on: CYP2E1; parameters: method as in Diesinger et al., 2020; details: ref Diesinger et al., 2020, cited from earlier work; for Inhibition of CYP2E1 (in words): in vitro experiments
[2] = tested on: HFD‐induced NASH rat model (liver and serum); assay: End products of fat metabolism (liver and serum lipids), NASH rat model; type: in vivo, Wistar rats; details: for Decrease in liver triglyceride levels compared to disease group / Reduction of the effect of HFD on liver triglyceride levels: average over doses (I‐ol, I‐an); for Decrease in liver triglyceride levels compared to disease group / Reduction of the effect of HFD on liver triglyceride levels / Decrease in liver phospholipid levels compared to disease group / Decrease in serum LDL cholesterol / Decrease in serum triglyceride levels compared to disease group: UDCA 40 mg/kg b.w.
Description: (§1) Studies were done using Wistar rats of female sex by the Institute of Pharmacology and Biochemistry at Minsk. The animals were 80–90 days old and weighed 180–200 g. They had free access to a liquid Lieber‐DeCarli (LDC) diet (Lieber et al., 2004) and were housed under standard conditions meaning a 12‐h light/dark cycle at 22 ± 2°C and 55 ± 5% humidity.
(§2) Group 1 was designated as the first control group; it was fed a normal standard solid diet. Group 2, as the second control group, was fed a standard amount of fat as a part of the liquid “physiological,” non‐high fat LDC diet. All other groups received the liquid ‘disease‐causing’ LDC diet (Table 2), including a high content of unsaturated fatty acids.
(§3) Both LDC diets were in a liquid form as produced by ssniff‐Spezialdiäten GmbH, Soest (Germany). The feed was provided over the entire experimental period of 16 weeks; however, the corresponding experimental substances were only administered in the last four weeks (Figure 3).
(§4) The experimental substances I‐ol, I‐an, and UDCA were dissolved in a 0.8% aqueous HPMC gel to obtain the following concentrations: (1) I‐ol at 0.4, 4, and 40 mg/kg body weight (b.w.), (2) I‐an at 0.4, 4, and 40 mg/kg b.w., and (3) UDCA at 40 mg/kg b.w. The Group‐2 and −3 rats received only HPMC as placebo. Each test encompassed 6–8 rats that were put up in a separate cage. The rats were fed ad libitum, and their intake per cage was controlled daily. In order to ensure an exact daily reproducible dosage, the experimental substances or only HPMC was administered intragastrically via oral gavage. Basically, the drug therapy of a chronic disease is the more efficient the higher the adherence of the affected patients. This is generally higher with peroral administration than with any other form of application. At the end of the experiment, the animals were sacrificed under fasting conditions, by aorta dissection and exsanguination, after anesthetizing with an intraperitoneal injection of 5% pentobarbital solution.
The activities of the liver enzymes aspartate aminotransferase (AST), alanine aminotransferase (ALT), alkaline phosphatase (AP), and γ‐glutamyl transferase (γ‐GT) as well as bilirubin and triglyceride levels in the serum were determined as described by the instructions of BIO‐LA‐tests kit (Erba Lachema, Brno, Czech Republic).
Extraction of lipids was performed using a solvent composed of chloroform and methanol (2:1 v/v). Thin‐layer chromatography (TLC) was used to separate off neutral lipids and phospholipids. Silicagel G 60 plates (0.25 mm thick) were used. The lipids were separated by ascending chromatography in a system composed of hexane:diethylic ether:glacial acetic acid (73:25:2; v/v/v). They were visualized by iodine vapor and the spots corresponding to triglycerides and cholesterol were scraped off and eluted with methanol for spectrophotometric evaluation. Triglyceride and cholesterol levels were determined using the BIO‐LA‐test kit (Erba Lachema, Brno, Czech Republic). Phospholipid concentration was determined by measuring the levels of phosphomolybdate using an inorganic phosphate reagent containing molybdate (Findlay & Evans, 1987). VLDL level was determined by using the manganese precipitation method (Burstein & Scholnick, 1973) after partial modification (Hirano et al., 2003).

[3] = tested on: HFD‐induced NASH rat model (liver); assay: Oxidative stress (ROS status) in the liver, HFD-induced NASH rat model; type: in vivo, Wistar rats; details: for Dose dependence of the effect on SRA level: Pearson correlation / linear regression; for Increase in GR activity compared to disease group: I‐ol, I‐an groups overall; for Increase in GR activity compared to disease group / Decrease in SRA level compared to disease group / Decrease in TBARS level compared to disease group / Reduction of the effect of HFD on the SRA level / Reduction of the effect of HFD on the TBARS level: UDCA 40 mg/kg b.w.; for Decrease in SRA level compared to disease group: average over 0.4, 4, 40 mg/kg b.w. (I‐ol, I‐an), oral gavage daily, last 4 of 16 weeks HFD; for Decrease in TBARS level compared to disease group / Reduction of the effect of HFD on the SRA level / Reduction of the effect of HFD on the TBARS level: average over doses (I‐ol, I‐an)
Description: as §1
The rats were divided into 10 groups based on the diets and experimental substances administered (Figure 2).
as §2, §3, §4
The formation of ROS in the rat liver was measured using NADPH‐induced chemiluminescence as described by Müller‐Peddinghaus et al. (Muller‐Peddinghaus, 1987). Luminol and lucigenin were used for detecting the superoxide radical anion (SRA) and hydrogen peroxide. Liver pieces were homogenized in 0.1 M sodium phosphate buffer, pH 7.4; the homogenates were centrifuged at 9,000 × g at 0°C; and aliquots were used for subsequent measurements. Reduced glutathione (GSH) was estimated via a modified Ellman's method (Ellman, 1959), in which 0.2 mL of the liver homogenate supernatant was added to 1.6 mL of an EDTA/sodium phosphoric acid solution and the absorbance noted at 412 nm against blank values. GSH solution produced immediately before application served as the standard. The end products of the lipid peroxidation reaction were equivalent to the thiobarbituric acid‐reacting substances (TBARS), and their concentration was measured according to the method described by Buege et al. (Buege & Aust, 1978). Enzymatic activities of microsomal glutathione reductase (GR) and cytosolic glutathione peroxidase (GPx) were measured according to the methodology of Buko et al. (Buko et al., 2002). Catalase activity was determined according to the spectroscopic methodology described by Beers et al. (Beers & Sizer, 1952) using hydrogen peroxide as the substrate.

[4] = tested on: HFD‐induced NASH rat model (liver); assay: Liver histopathology, semi‐quantitative evaluation, NASH rat model; type: in vivo, Wistar rats; parameters: key to Steatosis score / Balooning score: 0, none; 1, ≤25%; 2, 26–50%; 3, ≥51–75% of liver parenchyma; details: for Balooning score / Inflammation score / Steatosis score: H.E.‐stained liver slices
Description: as §1, §2, §3, §4
Pieces of liver tissue measuring 1 × 2 × 0.5 mm were chosen randomly and fixed for a week in the mixture of 1% formaldehyde and 1% paraformaldehyde in Sorensen's phosphate buffer (pH 7.4) (Morphisto GmbH, Frankfurt/Main). After this the pieces were kept in 2.5% glutaraldehyde in same buffer, rinsed and then post‐fixed in 1% solution of osmium tetroxide on the Sorensen's phosphate buffer (pH 7.4). After fixation, the liver samples were dehydrated and embedded in the pre‐polymerized mixture of methyl methacrylate and butyl methacrylate (1:4, v/v) containing 2,4‐dichlorbenzoyl peroxide as a catalyst.
[…] A semi‐quantitative evaluation of the sections was performed according to the procedure described by Koppe et al. (Koppe et al., 2004).

[5] = liver, highest concentration (40 mg/kg b.w.)

SMILES | Inhibition of CYP2E1 (in words) [1] | Decrease in liver triglyceride levels compared to disease group [2] [%] | Reduction of the effect of HFD on liver triglyceride levels [2] [%] | Decrease in liver phospholipid levels compared to disease group ([2]; average over doses) | Decrease in serum LDL cholesterol ([2]; average over doses) | Decrease in serum triglyceride levels compared to disease group ([2]; average over doses) | Dose dependence of the effect on SRA level ([3]; 0.4, 4, 40 mg/kg b.w.) | Increase in GR activity compared to disease group ([3]; liver) | Decrease in SRA level compared to disease group ([3]; liver) [%] | Decrease in TBARS level compared to disease group ([3]; liver) [%] | Reduction of the effect of HFD on the SRA level ([3]; liver) [%] | Reduction of the effect of HFD on the TBARS level ([3]; liver) [%] | Decrease in hydrogen peroxide level compared to disease group [3, 5] [%] | Hydrogen peroxide level below the reference values of group 1 [3, 5] [%] | Balooning score ([4]; 0.4 mg/kg b.w. + HFD) | Inflammation score ([4]; 0.4 mg/kg b.w. + HFD) | Steatosis score ([4]; 0.4 mg/kg b.w. + HFD) | Balooning score ([4]; 4.0 mg/kg b.w. + HFD) | Inflammation score ([4]; 4.0 mg/kg b.w. + HFD) | Steatosis score ([4]; 4.0 mg/kg b.w. + HFD) | other results
OCCCCCCCCCCCCn1ccnc1 [I‐ol, 12‐imidazolyl‐1‐dodecanol] | strong inhibitors of CYP2E1 | 18 | 41 | no therapeutic effect | 28% | no therapeutic effect | strong, very highly significant (p < 0.001), linear, dose‐dependent effect | 28% | 21 | 38 | 60 | 87 | 50 | 16 | 1 (1, ≤25%) | 1–2 | 0–1 | 1 (1, ≤25%) | 1 (1, <5 signs of inflammation) | 0 | Binding strength to CYP2E1 (rank) [1]: highest affinity; Serum LDL cholesterol below the reference value of group 1 ([2]; average over doses): 11%; Reduction of serum VLDL level ([2]; medium concentration (4 mg/kg b.w.)): 19%; Liver cholesterol level below the reference value of group 1 ([2]; medium dose (4 mg/kg b.w.)): 7%; Reduction of liver cholesterol level compared to disease group ([2]; medium dose (4 mg/kg b.w.)): 17%; Dose dependence of the effect on hydrogen peroxide level ([3]; 0.4, 4, 40 mg/kg b.w.): strong, very highly significant (p < 0.001), linear, dose‐dependent effect; Effect on GSH level (in words) ([3]; liver, compound overall): non‐significant trend toward an increasing GSH level; SRA level below the reference value of control group 1 [3, 5]: 24%; Effect of HFD nullified, GR activity increased by (on an average) ([3]; liver, relative to the effect of HFD): 113%; Balooning score ([4]; 40.0 mg/kg b.w. + HFD): 1 (1, ≤25%); Inflammation score ([4]; 40.0 mg/kg b.w. + HFD): 1 (1, <5 signs of inflammation); Steatosis score ([4]; 40.0 mg/kg b.w. + HFD): 0–1; Effect on liver histology (in words) ([4]; animals with NASH (HFD)): dose‐dependent reduction of the pathological signs
CCCCCCCCCCCCn1ccnc1 [I‐an, 1‐imidazolyldodecane] | strong inhibitors of CYP2E1 | 15 | 33 | 13% | non‐significant trend toward lowering the serum LDL level | 12% | weak, significant (p < 0.05), linear, dose‐dependent effect | no effect | 23 | 35 | 65 | 82 | 43 | 4 | 0–1 | 1 (1, <5 signs of inflammation) | 0–1 | 1 (1, ≤25%) | 1 (1, <5 signs of inflammation) | 0–1 | Dose dependence of the effect on liver phospholipid levels ([2]; 0.4, 4, 40 mg/kg b.w.): strong and very highly significant (p < 0.001), linear, dose‐dependent effect; Reduction of the effect of HFD on liver phospholipid levels ([2]; average over doses): 53%; Serum triglyceride level below the reference value of group 1 ([2]; average over doses): 4%; Liver phospholipid level above the reference value of group 1 ([2]; highest concentration (40 mg/kg b.w.)): 3%; Liver cholesterol level below the reference value of group 1 ([2]; low dose (0.4 mg/kg b.w.)): 8%; Reduction of liver cholesterol level compared to disease group ([2]; low dose (0.4 mg/kg b.w.)): 18%; Dose dependence of the effect on GSH level ([3]; 0.4, 4, 40 mg/kg b.w.): weak, significant (p < 0.05), linear, dose‐dependent effect; Increase in GSH level compared to disease group [3, 5]: 63%; Reduction of SRA level [3, 5]: 75%; Reduction of the effect of HFD on GSH level [3, 5]: 87%; Balooning score ([4]; 40.0 mg/kg b.w. + HFD): 0–1; Inflammation score ([4]; 40.0 mg/kg b.w. + HFD): 1 (1, <5 signs of inflammation); Steatosis score ([4]; 40.0 mg/kg b.w. + HFD): 0–1
